Values of other authors in patent US20220409549A1, “ORAL PRODUCT TABLET AND METHOD OF MANUFACTURE” (NICOVENTURES TRADING LIMITED, priority 2021, published 2022).
Read-outs that look alike come from different tables or passages of the source.

Assays:
[1] = for solubility: fats, alcohols, water
[2] = converts via isomerization into trans-bixin
[3] = for logP: organic acids of Table 1, octanol and water

Q: Which solubility [1] does the source give for COC(=O)/C=C/C(C)=C\C=C\C(C)=C\C=C\C=C(C)\C=C\C=C(C)\C=C\C(=O)O [bixin] here?
A: soluble in fats and alcohols but insoluble in water

Q: What about the “chemical stability when isolated” value [2] of the same molecule?
A: chemically unstable

Q: For ethyl benzoic acid, which logP [3] is on record?
A: 2.9

Q: What does the source list for CN1CCCC1c1cccnc1 (centres unmarked) [nicotine, reference compound]?
A: partitioning into octanol ([3]; acidic pH values, about 6.5 to about 4, protonated form): lower partitioning into octanol; partitioning into octanol ([3]; alkaline pH values, about 7.5 to about 9, free base form): high partitioning into octanol

Q: Which “solubility in an aqueous environment (e.g., saliva)” value [1] does the source give for C=C(C)[C@@H]1CCC(C)=C[C@H]1c1c(O)cc(CCCCC)cc1O [CBD, cannabidiol, reference compound] here?
A: insoluble

Q: And the logP value ([3]; CBD)?
A: about 6.5

Q: For tocopherol succinate, which logP [3] is on record?
A: 10.2

Q: With CC(C)[C@@H]1CC[C@@H](C)C[C@H]1OC(=O)CCC(=O)O [monomenthyl succinate] as the molecule, how does the logP [3] read?
A: 3

Q: Which solubility [1] does the source give for CC(/C=C/C=C(C)/C=C/C(=O)O)=C\C=C\C=C(C)\C=C\C=C(C)\C=C\C(=O)O (stereo in doubt) [norbixin, (2E,4E,6E,8E,10E,12E,14E,16E,18E)-4,8,13,17-tetramethylicosa-2,4,6,8,10,12,14,16,18-nonaenedioic acid] here?
A: water soluble

Q: With isopropyl benzoic acid as the molecule, how does the logP [3] read?
A: 3.5
